pKi: −log10 of the molar value.
Target: Calcitonin-gene-related peptide receptor, CALCRL/RAMP1 (Homo sapiens, UniProt O60894+Q16602)
Experiment: Radioligand Binding Assay: Human CGRP receptors expressed (consisting of CRLR and RAMP1) in insect Sf21 cell membrane homogenates were re-suspended in the binding buffer (10 mM HEPES, pH 7.4, 5 mM MgCl2, 0.2% BSA) to a final assay concentration of 0.6 μg protein per well. Saturation isotherms were determined by the addition of various concentrations of 3H-telcagepant (Ho et al, The Lancet, 2008, 372, 2115) (in a total reaction volume of 250 μL) for 60 min at rt. At the end of the incubation, membranes were filtered onto a unifilter, a 96-well white microplate with bonded GF/B filter pre-incubated with 0.5% PEI, with a Tomtec cell harvester and washed 5 times with distilled water. Non-specific binding (NSB) was measured in the presence of 10 nM MK-3207 hydrochloride (CAS No. 957116-20-0). Radioactivity on the filter was counted (1 min) on a microbeta counter after addition of 50 μL of scintillation fluid. For inhibition experiments, membranes were incubated with 0.5 nM 3H-telcagepant and 10 concentrations of the inhibitory compound (0.001-10 μM). IC50 values were derived from the inhibition curve and the affinity constant (Ki) values were calculated using the Cheng-Prussoff equation (Cheng et al, Biochem. Pharmacol. 1973, 22, 3099-3108).

Chain of Calcitonin-gene-related peptide receptor, CALCRL/RAMP1 (O60894 whole entry): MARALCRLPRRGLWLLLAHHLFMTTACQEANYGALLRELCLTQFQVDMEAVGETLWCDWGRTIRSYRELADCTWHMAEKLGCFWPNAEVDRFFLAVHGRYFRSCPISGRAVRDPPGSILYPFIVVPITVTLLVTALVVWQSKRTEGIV
Chain of Calcitonin-gene-related peptide receptor, CALCRL/RAMP1 (Q16602 whole entry): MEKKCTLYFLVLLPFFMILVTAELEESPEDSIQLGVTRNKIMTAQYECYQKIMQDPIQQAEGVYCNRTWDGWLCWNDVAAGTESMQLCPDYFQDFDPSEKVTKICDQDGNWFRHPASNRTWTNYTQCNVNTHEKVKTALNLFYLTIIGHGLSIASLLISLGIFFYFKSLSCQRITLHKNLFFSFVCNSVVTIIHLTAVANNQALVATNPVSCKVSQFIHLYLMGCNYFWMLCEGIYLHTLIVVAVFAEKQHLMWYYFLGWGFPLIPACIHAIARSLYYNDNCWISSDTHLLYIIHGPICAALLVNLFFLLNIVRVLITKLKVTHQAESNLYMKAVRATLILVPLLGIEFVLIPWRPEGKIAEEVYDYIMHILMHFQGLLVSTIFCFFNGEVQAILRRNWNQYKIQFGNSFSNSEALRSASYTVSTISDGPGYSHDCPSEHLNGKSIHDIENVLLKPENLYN

Cc1cc(C[C@@H](NC(=O)N2CCC(n3c(=O)[nH]c4ncccc43)CC2)C(=O)N[C@@H](CC2CCN(CCN(C)C)CC2)C(=O)N2CCN(c3ccncc3)CC2)cc2cn[nH]c12
pKi: 10.60

— ChEMBL document CHEMBL5726992, “CGRP receptor antagonists” (2019)
